Entries after “also recorded” stand apart in the source; their conditions may differ. Like-named read-outs stand apart in the source and are kept apart here.
T1: AATase (Saccharomyces cerevisiae, UniProt P40353, N391K/T84I)
T1 construct: culturing yeast cells of Saccharomyces cerevisiae KYOKAI No. 7 and recovering and purifying the crude enzyme; endogenous in cells; host or cells: Saccharomyces cerevisiae KYOKAI No. 7 (sake yeast)
T1 sequence (P40353 1-525 T84I/N391K): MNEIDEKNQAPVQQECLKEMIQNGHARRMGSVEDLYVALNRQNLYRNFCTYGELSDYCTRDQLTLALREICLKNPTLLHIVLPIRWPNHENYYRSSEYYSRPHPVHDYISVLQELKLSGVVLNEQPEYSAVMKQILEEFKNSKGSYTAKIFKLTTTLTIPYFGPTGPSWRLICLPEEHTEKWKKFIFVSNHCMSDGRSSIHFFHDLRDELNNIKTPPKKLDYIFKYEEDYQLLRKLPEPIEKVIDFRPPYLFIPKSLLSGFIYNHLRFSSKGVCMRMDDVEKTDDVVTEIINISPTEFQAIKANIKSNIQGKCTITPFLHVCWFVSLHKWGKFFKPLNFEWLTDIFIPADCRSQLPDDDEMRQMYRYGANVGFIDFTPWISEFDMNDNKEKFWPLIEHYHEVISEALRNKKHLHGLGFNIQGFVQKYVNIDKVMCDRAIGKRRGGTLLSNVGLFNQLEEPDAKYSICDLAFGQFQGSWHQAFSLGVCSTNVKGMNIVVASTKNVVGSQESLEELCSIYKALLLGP


Columns and labels:
AATase [1] = biological target: T1, AATase; assay: biochemical; type: biochemical
AATase [2] = biological target: T1, AATase; assay: biochemical; settings: read-out: Relative activity (%)
[3] = substrate: CC(=O)SCCNC(=O)CCNC(=O)[C@H](O)C(C)(C)COP(=O)(O)OP(=O)(O)OC[C@H]1O[C@@H](n2cnc3c(N)ncnc32)[C@H](O)[C@@H]1OP(=O)(O)O; assay: Km value of AATase to isoamyl alcohol and acetyl-CoA; type: biochemical, Saccharomyces cerevisiae; settings: other: substrate of AATase; pH 7.5; 25.0 °C
Method: (§1) A 1 ml of a solution containing a buffer for AATase reaction (25 mM imidazole hydrochloride buffer (pH 7.5), 1 mM acetyl-CoA, 0.1% Triton X-100, 0.5% isoamyl alcohol, 1 mM dithiothreitol, 0.1M sodium chloride, 20% glycerol: or 10 mM phosphate buffer (pH 7.5), 1 mM acetyl-CoA, 0.1% Triton X-100, 0.5% isoamyl alcohol, 1 mM dithiothreitol, 0.1M sodium chloride, 20% glycerol) and the enzyme of the present invention was encapsulated into a 20 ml vial and reacted at 25° C. for 1 hour. After incubation, the vial was opened and the reaction was stopped by adding 0.6 g of sodium chloride. n-Butanol was added as an internal standard to the reaction mixture up to 50 ppm. The vial was capped with a teflon stopper. Then, the isoamyl acetate generated was determined with the head space gas chromatography (Shimadzu GC-9A, HSS-2A) under the following condition: […]

[4] = substrate: CC(C)CCO; assay: as above; type: biochemical, Saccharomyces cerevisiae; settings: other: substrate of AATase; pH 7.5; 25.0 °C
Method: as §1

| Molecule | activity at 2000 µM (AATase [2]) | further results |
| --- | --- | --- |
| c1cnc2c(c1)ccc1cccnc12 [1,10-phenanthroline] |  | activity at 1000 µM (AATase [1]; read-out: Relative activity (%)): 87.9% |
| O=C(O)c1cc(SSc2ccc([N+](=O)[O-])c(C(=O)O)c2)ccc1[N+](=O)[O-] [DTNB, Dithiobis(2nitrobenzoic acid)] |  | Relative activity (%) (AATase [1]; inhibitor 0.1 mM per footnote (head: 1 mM), None = 100): 0% |
| CCCCC/C=C\C/C=C\CCCCCCCC(=O)O [Linoleic acid] | 4.3% |  |
| CC/C=C\C/C=C\C/C=C\CCCCCCCC(=O)O [Linolenic acid] | 32% |  |
| CCCCCCCCCCCCCC(=O)O [Myristic acid] | 60.5% |  |
| CCCCCCCC/C=C\CCCCCCCC(=O)O [Oleic acid] | 59.6% |  |
| O=C(O)c1cc[c]([Hg][Cl])cc1 [PCMB, pChloromercuribenzoic acid] |  | Inhibition of the enzyme (in words) (AATase [1]): inhibited strongly; also recorded: intensively inhibited; Relative activity (%) (AATase [1]): 0% |
| O=S(=O)(F)Cc1ccccc1 [PMSF, Phenylmethanesulfonyl fluoride] |  | Relative activity (%) (AATase [1]): 70.2% |
| CCCCCCCCCCCCCCCC(=O)O [Palmitic acid] | 88.1% |  |
| CCCCCC/C=C\CCCCCCCC(=O)O [Palmitoleic acid] | 16.7% |  |
| CCCCCCCCCCCCCCCCCC(=O)O [Stearic acid] | 80.5% |  |
| AATase (Saccharomyces cerevisiae S288C; N391K/T84I) (protein, culturing yeast cells of Saccharomyces cerevisiae KYOKAI No. 7 and recovering and purifying the crude enzyme; endogenous in cells; host or cells: Saccharomyces cerevisiae KYOKAI No. 7 (sake yeast)) MNEIDEKNQAPVQQECLKEMIQNGHARRMGSVEDLYVALNRQNLYRNFCTYGELSDYCTRDQLTLALREICLKNPTLLHIVLPIRWPNHENYYRSSEYYSRPHPVHDYISVLQELKLSGVVLNEQPEYSAVMKQILEEFKNSKGSYTAKIFKLTTTLTIPYFGPTGPSWRLICLPEEHTEKWKKFIFVSNHCMSDGRSSIHFFHDLRDELNNIKTPPKKLDYIFKYEEDYQLLRKLPEPIEKVIDFRPPYLFIPKSLLSGFIYNHLRFSSKGVCMRMDDVEKTDDVVTEIINISPTEFQAIKANIKSNIQGKCTITPFLHVCWFVSLHKWGKFFKPLNFEWLTDIFIPADCRSQLPDDDEMRQMYRYGANVGFIDFTPWISEFDMNDNKEKFWPLIEHYHEVISEALRNKKHLHGLGFNIQGFVQKYVNIDKVMCDRAIGKRRGGTLLSNVGLFNQLEEPDAKYSICDLAFGQFQGSWHQAFSLGVCSTNVKGMNIVVASTKNVVGSQESLEELCSIYKALLLGP |  | Km [3]: 0.19 mM; Km [4]: 29.8 mM |
